# From patent EP0421733B1, “Amphotericin B lipid complex” (THE LIPOSOME COMPANY, INC., priority 1989, dated 1991)
# Like-named read-outs stand apart in the source and are kept apart here.
# Tested on: C. albicans SC 5314
# Test: Single-dose intravenous treatment of systemic candidiasis in mice
# Type: in vivo
# Settings: Candida albicans, SC5314, iv
# Procedure: Female Swiss Webster mice were infected intraveneously with 5 x 10⁶ blastospores of C. albicans SC 5314 and treated one time with either ABLC or amphotericin B, five hours later. The amphotericin B was diluted in 5% dextrose for intravenous injection into the experimental mice. The ABLC formulation was also administered intravenously.
smiles,measurement,setting,value
C[C@@H]1[C@H](O)[C@@H](C)/C=C/C=C/C=C/C=C/C=C/C=C/C=C/[C@H](O[C@@H]2O[C@H](C)[C@@H](O)[C@H](N)[C@@H]2O)C[C@@H]2O[C@](O)(C[C@@H](O)C[C@@H](O)[C@H](O)CC[C@@H](O)C[C@@H](O)CC(=O)O[C@H]1C)C[C@H](O)[C@H]2C(=O)O [Amphotericin B],ED50,"5 h, read-out: ED₅₀(mg AMB/kg) Clearance",0.7 mg/kg
same,ED50,"5 h, read-out: ED₅₀(mg AMB/kg) Survival",0.46 mg/kg
same,ED50,read-out: survival ED₅₀,0.46 mg/kg
same,ED50,"single i.v. dose, infected mice, read-out: ED₅₀ based on kidney clearance",0.7 mg/kg
